Measured values: paper PMC11662004 (Communications Chemistry, 2024)
“And” between values parts separate entries of the source, which are not always exact repeats. Equal values may be shown once. Read-outs that look alike come from different tables or passages of the source.

Assays:
NgTet1 [1] = molecular target: T1, NgTet1 (Naegleria gruberi, UniProt D2W6T1); test: biochemical; conditions: for normalised activity, %: AlphaScreen
T1 construct: His6-tagged full-length Naegleria gruberi NgTet1 (321 a. a.) protein with a thrombin cleavage site; made in house; host or cells: E. coli BL21(DE3)
T1 sequence (D2W6T1 1-321): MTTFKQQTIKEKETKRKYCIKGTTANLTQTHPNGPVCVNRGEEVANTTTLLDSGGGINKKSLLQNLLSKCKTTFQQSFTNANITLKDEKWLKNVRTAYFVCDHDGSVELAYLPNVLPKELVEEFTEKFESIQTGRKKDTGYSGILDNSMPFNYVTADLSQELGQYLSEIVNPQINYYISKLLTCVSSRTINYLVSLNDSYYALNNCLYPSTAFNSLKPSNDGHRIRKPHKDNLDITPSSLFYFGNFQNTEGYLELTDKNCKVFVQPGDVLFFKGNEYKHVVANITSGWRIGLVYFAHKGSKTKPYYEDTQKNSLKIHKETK
Experimental: (Fig. 5a), were screened for inhibitory activity against NgTet1.
(§1) Activity was normalised against reactions containing vehicle (DMSO). […] AS data shown as the mean of three experimental replicates (n = 3; mean ± SD); ^1H NMR data plotted from two independent replicates (n = 2); tabulated data reported as the mean of two and three independent replicates for ^1H NMR and AS, respectively (n = 2–3, SD reported for n = 3). N. d.: not determined; AS: AlphaScreen.
Compounds in DMSO (100 nL) were pre-dispensed in a logarithmically linear concentration gradient onto 384-well ProxiPlates using an Echo® 550 acoustic liquid handler (Labcyte). NgTet1 was pre-incubated with the inhibitor dilution series in DMSO at room temperature for 10 min. Reactions were initiated by the addition of appropriate cofactors and DNA. […] The reactions were quenched by the addition of 30 mM EDTA (pH 4.2), 358 mM NaCl (5 μL) within the enzyme linear activity window (determined in Fig. S10). Concurrently, a mixture containing the anti-^5hmC antibody (1:2000 dilution) and AlphaScreen beads (1:62.5 dilution) in assay buffer was prepared and incubated at room temperature for 30 min. The AlphaScreen bead/antibody mixture was added to the quenched NgTet1 reactions (5 μL), and the complete mixture was incubated at room temperature for 1 h. Chemiluminescence was measured on a PHERAstar FS/FSX (BMG Labtech) equipped with an AlphaScreen 680 570 module. All AlphaScreen bead manipulations were performed under subdued lighting. Inhibition data was normalised to reactions containing vehicle only (1% v/v DMSO) and fitted using “log(inhibitor) vs. response—Variable slope (four parameters)” non-linear regression model on GraphPad Prism 5.

NgTet1 [2] = molecular target: T1, NgTet1; test: biochemical; conditions: for potency change in the presence of non-substrate 5HC DNA: uncoupled 2OG turnover; for IC50: 5 μM NgTet1, 50 μM 2OG
Experimental: as §1
(§2) All ^1H NMR spectra were recorded at 25 °C using D2O as a reference for internal deuterium lock on a Bruker Avance III 700 MHz equipped with an inverse TCI cryoprobe in 3 or 5 mm diameter tubes with a total sample volume of 160 or 565 μL, respectively. The water signal was reduced using Perfect Echo excitation sculpting suppression. Chemical shifts are reported in ppm relative to D2O (δH = 4.70 ppm).
NgTet1 was pre-incubated with inhibitor dilution series in DMSO-d6 at room temperature for 10 min (50 mM Tris-d11 [pH 7.5], 2% v/v DMSO-d6). Reactions were initiated by the addition of appropriate cofactors and DNA. […] The reactions were quenched by the addition of 9 mM NOG and 9 mM ZnCl2 in 90 mM Tris-d11 [pH 7.5] (20 μL) within the enzyme linear activity window (determined in Figure. S10). Samples were transferred to NMR tubes and subjected to ^1H NMR analysis. Data were processed as described above. Inhibition data was normalised to reactions containing vehicle only (1% v/v DMSO-d6) and fitted using “log(inhibitor) vs. response - Variable slope (four parameters)” non-linear regression model on GraphPad Prism 5.
Activity was normalised against reactions containing vehicle only (100% activity). Data is shown as the mean of 2 independent replicates (n = 2; […]
Fig. S10 Determination of linear NgTet1 enzymatic activity windows for inhibitor characterisation. a 1H NMR succinate detection time courses with no DNA, 5HC DNA (double- […]
complementary 5'-ACC AC5mC GGT GGT-3'). b AlphaScreen 5hmC detection time course using […]
courses shown. 1H NMR reaction conditions: 5 μM NgTet1, 2 mM sodium L-ascorbate, 100 μM […]
v/v D2O. DNA was added to a final concentration of 20 μM of double-stranded DNA. […]

NgTet1 [3] = molecular target: T1, NgTet1; assay type: biochemical; conditions: for Km: read-out: KM^app (2OG)
Experimental: Double-stranded 12 bp DNA oligomers were added at a final concentration of 20 µM. […]
Double-stranded DNA oligomers were added at a final concentration of 20 µM. […]
as §2
Spectrometer settings were determined using a control sample containing all reaction components excluding enzyme. TET enzyme was added to an identical sample, and the resulting assay mixture was transferred to an NMR tube before deposition into the instrument. […] Spectrum recordings were carried out consecutively without delay. Data were processed using automated routines on MestReNova v14.2.0; signals of interest were integrated with absolute intensity scaling. ^1H NMR time courses reported in figures are representative results from two or three independent replicates.

[4] = 5HC DNA, NMR, -Log[inhibitor] (M) 3
[5] = 5HC DNA, NMR, -Log[inhibitor] (M) 4
[6] = 5HC DNA, NMR, -Log[inhibitor] (M) 4.5
[7] = 5HC DNA, NMR, -Log[inhibitor] (M) 5
[8] = 5HC DNA, NMR, -Log[inhibitor] (M) 5.5
[9] = 5HC DNA, NMR, -Log[inhibitor] (M) 6
[10] = 5HC DNA, NMR, -Log[inhibitor] (M) 6.5
[11] = 5HC DNA, NMR, -Log[inhibitor] (M) 7
[12] = 5HC DNA, NMR, -Log[inhibitor] (M) 7.5
[13] = IC50, 5mC DNA, NMR, 2OG decarboxylation with 20 µM 5mC DNA
[14] = IC50, No DNA, NMR, uncoupled 2OG decarboxylation, no DNA

O=C(O)c1ccnc(C(=O)O)c1 [2,4-PDCA, 2,4-pyridinedicarboxylic acid]
normalised activity, % (NgTet1 [1]; -Log[inhibitor] (M) 8.03235): 118.908% and 105.933% and 106.512% and 100% and 103.458% and 100.779% and 97.3678% | IC50 (NgTet1 [1]; read-out: IC50, 5mC ssDNA, AS): 3.24 µM | potency change in the presence of non-substrate 5HC DNA (NgTet1 [2]; 1H NMR): < 2 fold | IC50 (NgTet1 [2]; 2OG decarboxylation with 20 µM 5HC DNA, read-out: IC50, 5HC DNA, NMR): 4.27 µM | normalised activity, % (NgTet1 [2]; [4]): -0.17% and 2.97% | normalised activity, % (NgTet1 [2]; 5HC DNA, NMR, -Log[inhibitor] (M) 3.5): 6.05% | normalised activity, % (NgTet1 [2]; [5]): 6.05% and 7.57% | normalised activity, % (NgTet1 [2]; [6]): 13.51% | normalised activity, % (NgTet1 [2]; [7]): 30.08% | normalised activity, % (NgTet1 [2]; [8]): 63.79% and 61.71% | normalised activity, % (NgTet1 [2]; [9]): 84.73% and 86.47% | normalised activity, % (NgTet1 [2]; [10]): 94.82% and 93.19% | normalised activity, % (NgTet1 [2]; [11]): 100.33% | normalised activity, % (NgTet1 [2]; [12]): 99.56% and 98% | normalised activity, % (NgTet1 [2]; 5mC DNA, NMR, 2,4-PDCA series -Log[inhibitor] (M) 3): 1.811% and 1.747% | normalised activity, % (NgTet1 [2]; 5mC DNA, NMR, -Log[inhibitor] (M) 3.47712): 1.338% and 1.107% | normalised activity, % (NgTet1 [2]; 5mC DNA, NMR, -Log[inhibitor] (M) 3.95424): 2.094% and 0.5576% | normalised activity, % (NgTet1 [2]; 5mC DNA, NMR, -Log[inhibitor] (M) 4.43136): 2.845% and 5.31% | normalised activity, % (NgTet1 [2]; 5mC DNA, NMR, -Log[inhibitor] (M) 4.90848): 7.1385% and 9.765% | normalised activity, % (NgTet1 [2]; 5mC DNA, NMR, -Log[inhibitor] (M) 5.38561): 30.9766% and 31.0028% | normalised activity, % (NgTet1 [2]; 5mC DNA, NMR, -Log[inhibitor] (M) 5.86273): 71.7609% and 72.2416% | normalised activity, % (NgTet1 [2]; 5mC DNA, NMR, -Log[inhibitor] (M) 6.33985): 92.2674% and 93.2727% | normalised activity, % (NgTet1 [2]; 5mC DNA, NMR, -Log[inhibitor] (M) 6.81697): 96.6317% and 94.5918% | normalised activity, % (NgTet1 [2]; 5mC DNA, NMR, -Log[inhibitor] (M) 7.29409): 100.253% and 99.2143% | IC50 (NgTet1 [2]; [13]): 2.45 µM | IC50 (NgTet1 [2]; [14]): 8.13 µM | normalised activity, % (NgTet1 [2]; No DNA, NMR, -Log[inhibitor] (M) 3): 1.858% and 5.513% | normalised activity, % (NgTet1 [2]; No DNA, NMR, -Log[inhibitor] (M) 3.47712): 5.794% and 4.915% | normalised activity, % (NgTet1 [2]; No DNA, NMR, -Log[inhibitor] (M) 3.95424): 6.819% and 9.688% | normalised activity, % (NgTet1 [2]; No DNA, NMR, -Log[inhibitor] (M) 4.43136): 23.271% and 23.2057% | normalised activity, % (NgTet1 [2]; No DNA, NMR, -Log[inhibitor] (M) 4.90848): 39.7721% and 42.1215% | normalised activity, % (NgTet1 [2]; No DNA, NMR, -Log[inhibitor] (M) 5.38561): 73.0359% and 62.1963% | normalised activity, % (NgTet1 [2]; No DNA, NMR, -Log[inhibitor] (M) 5.86273): 95.5986% and 84.3948% | normalised activity, % (NgTet1 [2]; No DNA, NMR, -Log[inhibitor] (M) 6.33985): 102.544% and 92.4597% | normalised activity, % (NgTet1 [2]; No DNA, NMR, -Log[inhibitor] (M) 6.81697): 101.45% and 102.432% | normalised activity, % (NgTet1 [2]; No DNA, NMR, -Log[inhibitor] (M) 7.29409): 100.407% and 97.5514%

O=C(O)c1ccc(O)c2ncccc12 [IOX1, 5-carboxy-8-hydroxyquinoline]
IC50 (NgTet1 [1]): 26.3 µM | normalised activity, % (NgTet1 [1]; -Log[inhibitor] (M) 4.00432): -0.5677% and -0.5665% and -1.091% | normalised activity, % (NgTet1 [1]; -Log[inhibitor] (M) 4.5272): 43.4249% and 52.8284% and 51.0837% | normalised activity, % (NgTet1 [1]; -Log[inhibitor] (M) 5.00432): 78.4888% and 85.3739% and 75.186% | normalised activity, % (NgTet1 [1]; -Log[inhibitor] (M) 5.60638): 80.6565% and 92.476% and 89.0303% | normalised activity, % (NgTet1 [1]; -Log[inhibitor] (M) 6.0945): 91.4843% and 93.7065% and 96.6507% | normalised activity, % (NgTet1 [1]; -Log[inhibitor] (M) 6.61738): 100.743% and 110.536% and 100.94% | normalised activity, % (NgTet1 [1]; -Log[inhibitor] (M) 7.0945): 88.4496% and 111.251% and 97.2074% | normalised activity, % (NgTet1 [1]; -Log[inhibitor] (M) 7.69656): 87.9129% and 106.34% and 94.3692% | normalised activity, % (NgTet1 [1]; -Log[inhibitor] (M) 8.20844): 99.4426% and 116.115% and 101.926% | normalised activity, % (NgTet1 [1]; -Log[inhibitor] (M) 8.73132): 100% and 102.574% | potency change in the presence of non-substrate 5HC DNA (NgTet1 [2]; 1H NMR): < 2 fold | normalised activity, % (NgTet1 [2]; [4]): 3.36% and 6.05% | normalised activity, % (NgTet1 [2]; [5]): 65.88% and 69.85% | normalised activity, % (NgTet1 [2]; [6]): 102.42% and 107.78% | normalised activity, % (NgTet1 [2]; [7]): 115.52% and 112.71% | normalised activity, % (NgTet1 [2]; [8]): 111.12% and 108.5% | normalised activity, % (NgTet1 [2]; [9]): 104.59% and 105.6% | normalised activity, % (NgTet1 [2]; [10]): 111.93% and 98% | normalised activity, % (NgTet1 [2]; [11]): 104.59% and 103.37% | normalised activity, % (NgTet1 [2]; [12]): 102.45% and 101.86% | potency decreased relative to AS assay (NgTet1 [2]; 5mC DNA substrate-saturating conditions, 1H NMR): 5 fold | IC50 (NgTet1 [2]; IC50, 5HC DNA, NMR, 2OG decarboxylation with 20 µM 5HC DNA): 110 µM | IC50 (NgTet1 [2]; [13]): 123 µM | IC50 (NgTet1 [2]; [14]): 57.5 µM

O=C(O)CCC(=O)C(=O)O [2OG, 2-oxoglutarate]
decrease of 2OG KM^app on substrate saturation (NgTet1 [3]; 20 µM 5mC DNA vs no DNA): ~2 fold | Vmax^app (NgTet1 [3]; No DNA): 2.83 µM/min | kcat^app (NgTet1 [3]; No DNA): 0.0095 s⁻¹ | Km (NgTet1 [3]; No DNA, 5 μM NgTet1): 284 µM | Km (NgTet1 [3]; with 20 µM 5mC DNA): 150 µM | Vmax^app (NgTet1 [3]; with 20 µM 5mC DNA): 8.31 µM/min
